Tests used:
bulrush [1] = assay: Test Example 1: herbicidal efficacy on rice paddy weeds pre-emergence; assay type: in vivo, Scirpus juncoides; conditions: 21 days
false pimpernel [2] = assay: as above; assay type: in vivo, Lindernia pyxidaria; conditions: 21 days
barnyard glass = assay: Test Example 2: herbicidal efficacy on rice paddy weeds post-emergence; assay type: in vivo, Echinochloa crus-galli; conditions: post-emergence, one leaf stage, 21 days after treatment
From the text: The standard of judgment for herbicidal efficacy (degree of growth inhibition) and phytotoxicity 4 . . . 90%-100% of herbicidal efficacy or phytotoxicity 3 . . . 70%-89% of herbicidal efficacy or phytotoxicity 2 . . . 40%-69% of herbicidal efficacy or phytotoxicity 1 . . . 1%-39% of herbicidal efficacy or phytotoxicity 0 . . . 0% of herbicidal efficacy or phytotoxicity
A 75 cm^2 plastic pot was filled with soil (clay loam) and planted seeds of barnyard glass and bulrush which is a rice paddy weed. After covering the top with 75 cm^3 soil mixed with seeds of false pimpernel, the pot was filled with water so that the soil submerged under 5 cm depth of water and kept in a hot house. […] The pot was kept in a hot house for 21 days after the treatment and the herbicidal efficacy was investigated and evaluated according to the standard in Test Example 1 by comparing with the untreated control. “-” in the table represents test not done.

bulrush [3] = assay: as above; assay type: in vivo, Scirpus juncoides; conditions: post-emergence, one leaf stage, 21 days after treatment
false pimpernel [4] = assay: as above; assay type: in vivo, Lindernia pyxidaria; conditions: post-emergence, one leaf stage, 21 days after treatment
[5] = test system: paddy rice plant (cultivar: Nihonbare); assay: Test Example 3: phytotoxicity test for transplanted paddy rice plant; assay type: in vivo; conditions: transplanted rice, 21 days after treatment
Summary of the method: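 Clay loam soil was placed in a 75 cm^2 plastic pot and flooded to a water depth of 5 cm. Two Nihonbare paddy rice plants at the two-leaf stage were transplanted 1 cm deep and grown in a hot house. After treatment, pots stayed in the hot house for 21 days, and phytotoxicity was then graded against an untreated control.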

[6] = dosage 1000 g/ha, treated 5 days after transplantation

SMILES | Bulrush pre (herbicidal efficacy grade) (bulrush [1]; dosage 300 g/ha) | False pimpernel pre (herbicidal efficacy grade) (false pimpernel [2]; dosage 300 g/ha) | Burnyard grass post (herbicidal efficacy grade) (barnyard glass; dosage 300 g/ha) | Bulrush post (herbicidal efficacy grade) (bulrush [3]; dosage 300 g/ha) | False pimpernel post (herbicidal efficacy grade) (false pimpernel [4]; dosage 300 g/ha) | Phytotoxicity to paddy rice ([5]; dosage 300 g/ha) | Bulrush pre (herbicidal efficacy grade) (bulrush [1]; dosage 1000 g/ha) | False pimpernel pre (herbicidal efficacy grade) (false pimpernel [2]; dosage 1000 g/ha) | Burnyard grass post (herbicidal efficacy grade) (barnyard glass; dosage 1000 g/ha) | Bulrush post (herbicidal efficacy grade) (bulrush [3]; dosage 1000 g/ha) | False pimpernel post (herbicidal efficacy grade) (false pimpernel [4]; dosage 1000 g/ha) | Phytotoxicity to paddy rice [5, 6]
CCCCC1COC(=O)N1Cc1ccccc1N(C(=O)OCC(C)C)S(=O)(=O)C(F)(F)F (stereo not drawn) [Compound 1-12] | 4 (90%-100% of herbicidal efficacy or phytotoxicity) | 2 (40%-69% of herbicidal efficacy or phytotoxicity) | 2 (40%-69% of herbicidal efficacy or phytotoxicity) | 4 (90%-100% of herbicidal efficacy or phytotoxicity) | 2 (40%-69% of herbicidal efficacy or phytotoxicity) | 0 (0% of herbicidal efficacy or phytotoxicity) | – | – | – | – | – | –
O=C1OC(C(F)(F)F)CN1Cc1ccccc1NS(=O)(=O)C(F)(F)F (stereo not drawn) [Compound 1-19] | 4 (90%-100% of herbicidal efficacy or phytotoxicity) | 3 (70%-89% of herbicidal efficacy or phytotoxicity) | 2 (40%-69% of herbicidal efficacy or phytotoxicity) | 4 (90%-100% of herbicidal efficacy or phytotoxicity) | 2 (40%-69% of herbicidal efficacy or phytotoxicity) | 0 (0% of herbicidal efficacy or phytotoxicity) | – | – | – | – | – | –
CC(C)COC(=O)N(c1ccccc1CN1CC(C(F)(F)F)OC1=O)S(=O)(=O)C(F)(F)F (stereo not drawn) [Compound 1-20] | 4 (90%-100% of herbicidal efficacy or phytotoxicity) | 3 (70%-89% of herbicidal efficacy or phytotoxicity) | 4 (90%-100% of herbicidal efficacy or phytotoxicity) | 4 (90%-100% of herbicidal efficacy or phytotoxicity) | 3 (70%-89% of herbicidal efficacy or phytotoxicity) | 0 (0% of herbicidal efficacy or phytotoxicity) | – | – | – | – | – | –
CCCC1CN(Cc2ccccc2NS(=O)(=O)C(F)(F)F)C(=O)O1 (stereo not drawn) [Compound 1-29] | – | – | – | – | – | – | 4 (90%-100% of herbicidal efficacy or phytotoxicity) | 4 (90%-100% of herbicidal efficacy or phytotoxicity) | 4 (90%-100% of herbicidal efficacy or phytotoxicity) | 4 (90%-100% of herbicidal efficacy or phytotoxicity) | 4 (90%-100% of herbicidal efficacy or phytotoxicity) | 2 (40%-69% of herbicidal efficacy or phytotoxicity)
CCCC1CN(Cc2ccccc2N(C(=O)OCC(C)C)S(=O)(=O)C(F)(F)F)C(=O)O1 (stereo not drawn) [Compound 1-30] | – | – | – | – | – | – | 4 (90%-100% of herbicidal efficacy or phytotoxicity) | 4 (90%-100% of herbicidal efficacy or phytotoxicity) | 4 (90%-100% of herbicidal efficacy or phytotoxicity) | 4 (90%-100% of herbicidal efficacy or phytotoxicity) | 4 (90%-100% of herbicidal efficacy or phytotoxicity) | 0 (0% of herbicidal efficacy or phytotoxicity)
CC(C)(C)C1CN(Cc2ccccc2NS(=O)(=O)C(F)(F)F)C(=O)O1 (stereo not drawn) [Compound 1-33] | – | – | – | – | – | – | 4 (90%-100% of herbicidal efficacy or phytotoxicity) | 4 (90%-100% of herbicidal efficacy or phytotoxicity) | 4 (90%-100% of herbicidal efficacy or phytotoxicity) | 4 (90%-100% of herbicidal efficacy or phytotoxicity) | 4 (90%-100% of herbicidal efficacy or phytotoxicity) | 2 (40%-69% of herbicidal efficacy or phytotoxicity)
CC(C)COC(=O)N(c1ccccc1CN1CC(C(C)(C)C)OC1=O)S(=O)(=O)C(F)(F)F (stereo not drawn) [Compound 1-34] | – | – | – | – | – | – | 4 (90%-100% of herbicidal efficacy or phytotoxicity) | 4 (90%-100% of herbicidal efficacy or phytotoxicity) | 4 (90%-100% of herbicidal efficacy or phytotoxicity) | 4 (90%-100% of herbicidal efficacy or phytotoxicity) | 4 (90%-100% of herbicidal efficacy or phytotoxicity) | 1 (1%-39% of herbicidal efficacy or phytotoxicity)
COCC1CN(Cc2ccccc2N(C(=O)OCC(C)C)S(=O)(=O)C(F)(F)F)C(=O)O1 (stereo not drawn) [Compound 1-36] | – | – | – | – | – | – | 4 (90%-100% of herbicidal efficacy or phytotoxicity) | 4 (90%-100% of herbicidal efficacy or phytotoxicity) | 4 (90%-100% of herbicidal efficacy or phytotoxicity) | 4 (90%-100% of herbicidal efficacy or phytotoxicity) | 4 (90%-100% of herbicidal efficacy or phytotoxicity) | 1 (1%-39% of herbicidal efficacy or phytotoxicity)
CC(=O)OCC1CN(Cc2ccccc2NS(=O)(=O)C(F)(F)F)C(=O)O1 (stereo not drawn) [Compound 1-37] | 0 (0% of herbicidal efficacy or phytotoxicity) | 1 (1%-39% of herbicidal efficacy or phytotoxicity) | 0 (0% of herbicidal efficacy or phytotoxicity) | 0 (0% of herbicidal efficacy or phytotoxicity) | 3 (70%-89% of herbicidal efficacy or phytotoxicity) | 0 (0% of herbicidal efficacy or phytotoxicity) | – | – | – | – | – | –
CC(=O)OCC1CN(Cc2ccccc2N(C(=O)OCC(C)C)S(=O)(=O)C(F)(F)F)C(=O)O1 (stereo not drawn) [Compound 1-38] | 3 (70%-89% of herbicidal efficacy or phytotoxicity) | 2 (40%-69% of herbicidal efficacy or phytotoxicity) | 1 (1%-39% of herbicidal efficacy or phytotoxicity) | 3 (70%-89% of herbicidal efficacy or phytotoxicity) | 1 (1%-39% of herbicidal efficacy or phytotoxicity) | 0 (0% of herbicidal efficacy or phytotoxicity) | – | – | – | – | – | –
O=C1OC(CCl)CN1Cc1ccccc1NS(=O)(=O)C(F)(F)F (stereo not drawn) [Compound 1-39] | – | – | – | – | – | – | 4 (90%-100% of herbicidal efficacy or phytotoxicity) | 4 (90%-100% of herbicidal efficacy or phytotoxicity) | 2 (40%-69% of herbicidal efficacy or phytotoxicity) | 4 (90%-100% of herbicidal efficacy or phytotoxicity) | 4 (90%-100% of herbicidal efficacy or phytotoxicity) | 0 (0% of herbicidal efficacy or phytotoxicity)
O=C1OC(c2ccccc2)CN1Cc1ccccc1NS(=O)(=O)C(F)(F)F (stereo not drawn) [Compound 1-41] | – | – | – | – | – | – | 4 (90%-100% of herbicidal efficacy or phytotoxicity) | 4 (90%-100% of herbicidal efficacy or phytotoxicity) | 4 (90%-100% of herbicidal efficacy or phytotoxicity) | 3 (70%-89% of herbicidal efficacy or phytotoxicity) | 2 (40%-69% of herbicidal efficacy or phytotoxicity) | 1 (1%-39% of herbicidal efficacy or phytotoxicity)

Source: patent US20080274892A1, “Novel Haloalkylsulfonanilide Derivative, Herbicide, and Method of Use Thereof” (priority 2005, published 2008)
